A value given as a limit tells only on which side of the number the result lay.

The target of the first experiment is T1, human Edg-1(S1P1) (Homo sapiens, UniProt P21453).
T1 construct: expressed in transfected cells; host or cells: HEK-293
T1 sequence (P21453 whole entry): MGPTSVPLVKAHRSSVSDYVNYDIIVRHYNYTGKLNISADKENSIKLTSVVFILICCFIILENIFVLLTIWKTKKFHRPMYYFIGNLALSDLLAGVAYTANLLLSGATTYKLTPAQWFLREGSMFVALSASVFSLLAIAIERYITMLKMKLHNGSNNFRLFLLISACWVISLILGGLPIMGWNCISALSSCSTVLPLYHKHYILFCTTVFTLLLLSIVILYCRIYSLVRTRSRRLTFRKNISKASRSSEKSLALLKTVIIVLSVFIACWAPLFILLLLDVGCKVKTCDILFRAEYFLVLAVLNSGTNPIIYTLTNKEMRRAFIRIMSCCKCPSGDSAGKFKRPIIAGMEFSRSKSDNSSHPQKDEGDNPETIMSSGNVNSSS
In words: S1P1 Binding Test ([33P]-S1P, membrane fraction of HEK-293 cell line carrying the human Edg-1(S1P1) gene). Particulars: compound at 10 μM; [33P]-S1P 0.1 nM; 30° C., 1 hour; read-out: inhibition rate of Edg-1(S1P1) binding. How it is done: The membrane fraction of a HEK-293 cell line carrying the human Edg-1(S1P1) gene was used to study the compounds of the present invention for their inhibitory effect on Edg-1(S1P1) binding, as described in Science. […] To obtain the membrane fraction, treatment with solubilizing buffer (1 mM Tris/HCl, pH 7.2) for 10 minutes on ice was performed, followed by centrifugation at 1000×g for 5 minutes to remove an insoluble fraction and then at 40000×g for 30 minutes at 4° C. The resulting membrane fraction was dissolved in binding buffer (20 mM Tris-HCl, pH 7.4, 100 mM NaCl, 15 mM NaF, 2 mM deoxypyridoxine, 4 mg/mL fatty acid-free BSA), followed by addition of binding buffer containing [^33P]-S1P (ARC, final concentration: 0.1 nM) and DMSO solution of a test compound (final concentration of the compound: 10^−5 M, final concentration of DMSO: 0.1%). After stirring, the reaction solution was incubated at 30° C. for 1 hour. The membrane fraction was collected onto a unifilter-96 GF/C filter (Perkin Elmer) using a harvester and washed four times with binding buffer, followed by drying the filter. After addition of 25 μL Microscint 0 (Perkin Elmer), radioactivity was measured with a Top Count NXT (Packard) to calculate amount (A), i.e., the amount of [^33P]-S1P binding to the membrane fraction in the presence of the compound.
The same procedure was performed in the absence of any test compound to calculate amount (B), i.e., the amount of [^33P]-S1P binding. Moreover, the same procedure was also performed with HEK-293 cells carrying no Edg-1(S1P1) gene in the absence of any test compound to calculate amount (C), i.e., the amount of background [^33P]-S1P binding.
The inhibition rate of Edg-1(S1P1) binding was calculated for each compound by the following equation. Inhibition rate (%)=[1−(A−C)/(B−C)]×100
Moreover, the activity of each test compound was calculated as a value (IC50 value) showing 50% of the radioactivity obtained in the absence of any test compound. Namely, the above membrane system binding test was performed in the presence of a test compound at various concentrations to calculate an IC50 value according to the dose-dependent inhibition curve analyzed with data analysis software, Origin (Lightstone Corp., Japan).
As for `CCc1c(C(C)NS(=O)(=O)c2ccc(Br)s2)ccnc1Oc1cccc(N2CCOCC2)c1` (stereo not drawn) [Compound 47], the inhibition at 10 µM is no less than 3%. For `CCc1c(C(C)NS(=O)(=O)c2ccc(Cl)c(Cl)c2Cl)ccnc1Oc1cccc(N2CCOCC2)c1` (stereo not drawn) [Compound 48], the inhibition at 10 µM is no less than 3%. In the case of `CCc1c(C(C)NS(=O)(=O)c2cccnc2)ccnc1Oc1cccc(N2CCOCC2)c1` (stereo not drawn) [Compound 49], the inhibition at 10 µM is no less than 3%. Turning to `CCc1c(C(C)NS(=O)(=O)c2ccc3ncccc3c2)ccnc1Oc1cccc(N2CCOCC2)c1` (stereo not drawn) [Compound 50], the inhibition at 10 µM is no less than 3%.

Consider `CCc1c(C(C)NS(=O)(=O)c2cc3ccccc3s2)ccnc1Oc1cccc(N2CCOCC2)c1` (stereo not drawn) [Compound 51], for which the inhibition at 10 µM is no less than 3%. In the case of `CCc1c(C(C)NS(=O)(=O)c2ccc3c(c2)OCO3)ccnc1Oc1cccc(N2CCOCC2)c1` (stereo not drawn) [Compound 52], the inhibition at 10 µM is no less than 3%. Take `CCc1c(C(C)NS(=O)(=O)/C=C/c2ccccc2)ccnc1Oc1cccc(N2CCOCC2)c1` (stereo not drawn) [Compound 53]: the inhibition at 10 µM was no less than 3%. Take `CCc1c(C(C)NS(=O)(=O)c2ccc3c(c2)CCO3)ccnc1Oc1cccc(N2CCOCC2)c1` (stereo not drawn) [Compound 54]: the inhibition at 10 µM is no less than 3%. Turning to `CCc1c(C(C)NS(=O)(=O)c2ccc3c(c2)N=S=N3)ccnc1Oc1cccc(N2CCOCC2)c1` (stereo not drawn) [Compound 55], the inhibition at 10 µM is no less than 3%. For the molecule `CCc1c(C(C)NS(=O)(=O)c2ccc(Cl)cc2Cl)ccnc1Oc1cccc(N2CCOCC2)c1` (stereo not drawn) [Compound 56], the inhibition at 10 µM is no less than 3%. `CCc1c(C(C)NS(=O)(=O)c2ccc3c(Cl)ccc(Cl)c3c2)ccnc1Oc1cccc(N2CCOCC2)c1` (stereo not drawn) [Compound 57]: the inhibition at 10 µM is no less than 3%. On to `CCc1c(C(C)NS(=O)(=O)c2ccc3c(Cl)cccc3c2)ccnc1Sc1ccc(C)cc1` (stereo not drawn) [Compound 58, 5-Chloronaphthalene-2-sulfonic acid [1-(3-ethyl-2-p-toluylsulfanyl-pyridin-4-yl)-ethyl]-amide], for which the inhibition at 10 µM is no less than 3%.

In the case of `CCc1c(C(C)NS(=O)(=O)c2ccc3c(Cl)cccc3c2)ccnc1S(=O)(=O)c1ccc(C)cc1` (stereo not drawn) [Compound 59, 5-Chloronaphthalene-2-sulfonic acid {1-[3-ethyl-2-(toluene-4-sulfonyl)-pyridin-4-yl]-ethyl}-amide], the inhibition at 10 µM is no less than 3%.

Take `CCc1c(C(C)N(C)S(=O)(=O)c2ccc3c(Cl)cccc3c2)ccnc1Oc1cccc(N2CCOCC2)c1` (stereo not drawn) [Compound 60, 5-Chloronaphthalene-2-sulfonic acid {1-[3-ethyl-2-(3-morpholin-4-yl-phenoxy)-pyridin-4-yl]-ethyl}-methyl-amide]: the inhibition at 10 µM was no less than 3%.

For the molecule `CCc1c(C(C)NS(=O)(=O)c2ccc3c(Cl)cccc3c2)ccnc1Sc1cccc(N2CCN(C)CC2)c1` (stereo not drawn) [Compound 62], the inhibition at 10 µM was no less than 3%.

Staying with this experiment, now noted: membrane binding test at various concentrations; [33P]-S1P 0.1 nM; read-out: IC50 value, Edg-1(S1P1) binding inhibition.
With `CCc1c(C(C)NS(=O)(=O)c2ccc(Cl)c(Cl)c2Cl)ccnc1Oc1cccc(N2CCOCC2)c1` (stereo not drawn) [Compound 48], the IC50 is 63 nM. For the molecule `CCc1c(C(C)NS(=O)(=O)c2ccc3c(c2)N=S=N3)ccnc1Oc1cccc(N2CCOCC2)c1` (stereo not drawn) [Compound 55], the IC50 was determined as 126 nM.

Take `CCc1c(C(C)NS(=O)(=O)c2ccc3c(Cl)ccc(Cl)c3c2)ccnc1Oc1cccc(N2CCOCC2)c1` (stereo not drawn) [Compound 57]: the IC50 is no more than 200 nM.

Source of the values: patent publication US8048898B2, “Inhibitor of binding of S1P1” (Taisho Pharmaceutical Co., Ltd, priority 2007, dated 2011).
